Converted amounts (≈) assume the structure as drawn. The source made the active and inactive calls. The rule behind the calls is not given here.
How the values were obtained:
Staphylococcus aureus [1] = test: Antibacterial activity against Methicillin-resistant Staphylococcus aureus USA300 assessed as inhibition of bacterial growth incubated for 24 hrs by broth dilution method; assay type: functional
Staphylococcus aureus [2] = test: Antibacterial activity against methicillin-resistant Staphylococcus aureus ATCC 4330 assessed as inhibition of bacterial growth incubated for 24 hrs by broth dilution method; assay type: functional
Staphylococcus aureus [3] = test: Antibacterial activity against methicillin-resistant Staphylococcus aureus ATCC 3392 assessed as inhibition of bacterial growth incubated for 24 hrs by broth dilution method; assay type: functional
Escherichia coli = test: Antibacterial activity against Escherichia coli ATCC 11775 assessed as inhibition of bacterial growth incubated for 24 hrs by broth dilution method; assay type: functional
Klebsiella pneumoniae = test: Antibacterial activity against Klebsiella pneumoniae […] assessed as inhibition of bacterial growth incubated for 24 hrs by broth dilution method; assay type: functional
Pseudomonas aeruginosa = test: Antibacterial activity against Pseudomonas aeruginosa […] assessed as inhibition of bacterial growth incubated for 24 hrs by broth dilution method; assay type: functional
Staphylococcus aureus [4] = test: Bactericidal against methicillin-resistant Staphylococcus aureus ATCC 4330 assessed as inhibition of bacterial growth incubated for 24 hrs by broth dilution method; assay type: functional
Staphylococcus aureus [5] = test: Bactericidal activity against methicillin-resistant Staphylococcus aureus ATCC 3392 assessed as inhibition of bacterial growth incubated for 24 hrs by broth dilution method; assay type: functional
Staphylococcus aureus [6] = test: Selectivity index, ratio of MBC for bactericidal against methicillin-resistant Staphylococcus aureus ATCC 4330 to MIC for antibacterial activity against methicillin-resistant Staphylococcus aureus ATCC 4330; assay type: functional
Staphylococcus aureus [7] = test: Selectivity index, ratio of MBC for bactericidal against methicillin-resistant Staphylococcus aureus ATCC 3392 to MIC for antibacterial activity against methicillin-resistant Staphylococcus aureus ATCC 3392; assay type: functional
[8] = Cytotoxicity against mouse RAW264.7 cells assessed as survival rate incubated for 24 hrs by MTT assay; assay type: toxicity, cell-based; set-up: concentration or dose not given beside the values; conditions: read-out: Survival
[9] = Cytotoxicity against human L02 cells assessed as survival rate incubated for 24 hrs by MTT assay; assay type: toxicity, cell-based; set-up: concentration or dose not given beside the values; conditions: read-out: Survival
Staphylococcus aureus [10] = test: Antibacterial activity against Methicillin-resistant Staphylococcus aureus USA300 infected in mouse skin infection model assessed as reduction in number of bacteria at 10 mg/kg, sc administered every 12 hrs for 3 days; assay type: functional; conditions: time 3.0 day

| SMILES | MIC (Staphylococcus aureus [1]) [µg/mL] | MIC (Staphylococcus aureus [2]) [µg/mL] | MIC (Staphylococcus aureus [3]) [µg/mL] | MIC (Escherichia coli) [µg/mL] | MIC (Klebsiella pneumoniae) [µg/mL] | MIC (Pseudomonas aeruginosa) [µg/mL] | MBC (Staphylococcus aureus [4]) [µg/mL] | MBC (Staphylococcus aureus [5]) [µg/mL] | Selectivity Index (Staphylococcus aureus [6]) | Selectivity Index (Staphylococcus aureus [7]) | viability at 24 h [8] [%] | viability at 24 h [9] [%] | Activity (Staphylococcus aureus [10]) |
| --- | --- | --- | --- | --- | --- | --- | --- | --- | --- | --- | --- | --- | --- |
| C[C@H]1c2cccc(O)c2C(=O)C2=C(O)[C@]3(O)C(=O)C(C(N)=O)=C(O)[C@@H](N(C)C)[C@@H]3[C@@H](O)[C@@H]21 [DOXYCYCLINE ANHYDROUS] | 0.5 (≈ 1.13 µM) | – | – | – | – | – | – | – | – | – | – | – | – |
| CCCCCCCCCCCCCCCC(=O)c1c(O)cc(O)c(C(=O)CCCCCCCCCCCCCCC)c1O | – | > 64 | > 64 | – | – | – | – | – | – | – | – | – | – |
| CCCCCC(=O)c1c(O)cc(O)c(C(=O)CCCCC)c1O | 0.5 (≈ 1.55 µM) | 0.5 (≈ 1.55 µM) | 0.5 (≈ 1.55 µM) | > 64 | > 64 | > 64 | 2 (≈ 6.2 µM) | 2 (≈ 6.2 µM) | 4 | 4 | – | – | – |
| CCCC(=O)c1c(O)cc(O)c(C(=O)CCC)c1O | – | 4 (≈ 15 µM) | 4 (≈ 15 µM) | – | – | – | – | – | – | – | – | – | – |
| O=Cc1c(O)cc(O)c(C=O)c1O | – | > 64 | > 64 | – | – | – | – | – | – | – | – | – | – |
| O=Cc1c(O)cc(O)cc1O [PHLOROGLUCINALDEHYDE] | – | > 64 | > 64 | – | – | – | – | – | – | – | – | – | – |
| CC(C)(C)CC(=O)c1c(O)cc(O)c(C(=O)CC(C)(C)C)c1O | 0.5 (≈ 1.55 µM) | 0.5 (≈ 1.55 µM) | 0.5 (≈ 1.55 µM) | > 64 | > 64 | > 64 | 4 (≈ 12.4 µM) | 4 (≈ 12.4 µM) | 8 | 8 | – | – | – |
| COc1cc(OC)c(C(C)=O)c(O)c1C(C)=O | – | > 64 | > 64 | – | – | – | – | – | – | – | – | – | – |
| COc1cc(O)c(C(C)=O)c(OC)c1C(C)=O | – | > 64 | > 64 | – | – | – | – | – | – | – | – | – | – |
| CCCCC(=O)c1c(O)cc(O)c(C(=O)C(C)CC)c1O (configuration not stated) | 1 (≈ 3.4 µM) | 1 (≈ 3.4 µM) | 1 (≈ 3.4 µM) | > 64 | > 64 | > 64 | 4 (≈ 13.6 µM) | 8 (≈ 27.2 µM) | 4 | 8 | 76 | 75 | – |
| CCCCC(=O)c1c(O)cc(O)c(C(=O)C(C)C)c1O | 1 (≈ 3.57 µM) | 2 (≈ 7.13 µM) | 2 (≈ 7.13 µM) | > 64 | > 64 | > 64 | 8 (≈ 28.5 µM) | 8 (≈ 28.5 µM) | 4 | 4 | 76 | 75 | – |
| CCCCC(=O)c1c(O)cc(O)c(C(=O)CCC(C)C)c1O | 0.5 (≈ 1.62 µM) | 0.5 (≈ 1.62 µM) | 0.5 (≈ 1.62 µM) | > 64 | > 64 | > 64 | 2 (≈ 6.49 µM) | 8 (≈ 25.9 µM) | 4 | 16 | 76 | 75 | – |
| O=C(Cc1ccccc1)c1c(O)cc(O)c(C(=O)Cc2ccccc2)c1O | 1 (≈ 2.76 µM) | 0.5 (≈ 1.38 µM) | 1 (≈ 2.76 µM) | 64 (≈ 177 µM) | > 64 | > 64 | 8 (≈ 22.1 µM) | 8 (≈ 22.1 µM) | – | 8 | – | – | – |
| O=C(c1c(O)cc(O)cc1O)C1CCC1 | – | 32 (≈ 154 µM) | 32 (≈ 154 µM) | – | – | – | – | – | – | – | – | – | – |
| CCC(C)C(=O)c1c(O)cc(O)c(C(=O)C(C)CC)c1O (configuration not stated) | – | 4 (≈ 13.6 µM) | 4 (≈ 13.6 µM) | – | – | – | – | – | – | – | – | – | – |
| O=C(Cc1ccccc1)c1c(O)cc(O)cc1O | – | 32 (≈ 131 µM) | > 64 | – | – | – | – | – | – | – | – | – | – |
| CC(C)(C)CC(=O)c1c(O)cc(O)cc1O | – | 64 (≈ 285 µM) | > 64 | – | – | – | – | – | – | – | – | – | – |
| CCCCCC(=O)c1c(O)cc(O)cc1O | – | 32 (≈ 143 µM) | 32 (≈ 143 µM) | – | – | – | – | – | – | – | – | – | – |
| CC(C)CCC(=O)c1c(O)cc(O)cc1O | – | 32 (≈ 143 µM) | 64 (≈ 285 µM) | – | – | – | – | – | – | – | – | – | – |
| CCCCCCCCC(=O)c1c(O)cc(O)c(C(=O)CCCCCCCC)c1O | – | 2 (≈ 4.92 µM) | 4 (≈ 9.84 µM) | – | – | – | – | – | – | – | – | – | – |
| COc1cc(O)c(C(C)=O)c(O)c1C(C)=O | – | > 64 | > 64 | – | – | – | – | – | – | – | – | – | – |
| O=C(c1c(O)cc(O)c(C(=O)C2CCCC2)c1O)C1CCCC1 | 0.5 (≈ 1.57 µM) | 1 (≈ 3.14 µM) | 1 (≈ 3.14 µM) | 64 (≈ 201 µM) | > 64 | > 64 | 4 (≈ 12.6 µM) | 4 (≈ 12.6 µM) | 4 | 4 | 76 | 75 | – |
| CCCCC(=O)c1c(O)cc(O)c(C(=O)C2CCCCC2)c1O | 0.5 (≈ 1.56 µM) | 0.5 (≈ 1.56 µM) | 0.5 (≈ 1.56 µM) | > 64 | > 64 | > 64 | 1 (≈ 3.12 µM) | 4 (≈ 12.5 µM) | 2 | 8 | 76 | 75 | – |
| O=C(c1c(O)cc(O)c(C(=O)C2CCCCC2)c1O)C1CCCCC1 | 0.5 (≈ 1.44 µM) | 1 (≈ 2.89 µM) | 0.5 (≈ 1.44 µM) | > 64 | > 64 | > 64 | 8 (≈ 23.1 µM) | 2 (≈ 5.77 µM) | 8 | 4 | – | – | – |
| CCCCC(=O)c1c(O)cc(O)c(C(C)=O)c1O | – | 4 (≈ 15.9 µM) | 8 (≈ 31.7 µM) | – | – | – | – | – | – | – | – | – | – |
| Cc1onc(-c2ccccc2)c1C(=O)N[C@@H]1C(=O)N2[C@@H]1SC(C)(C)[C@@H]2C(=O)O [OXACILLIN] | 16 (≈ 39.9 µM) | – | – | – | – | – | – | – | – | – | – | – | inactive |

Source: ChEMBL document CHEMBL5634137, “2,4-Diacetylphloroglucinol (DAPG) derivatives rapidly eradicate methicillin-resistant staphylococcus aureus without resistance development by disrupting membrane” (Eur J Med Chem, 2023)
